Holding throughout (experiment): MIC determination by in vitro antifungal assay
Assay [1] deals with Aspergillus fumigatus NRRL 163 (Q). The format is cell-based. As to conditions: strain Q = A. fumigatus NRRL 163. Put shortly:
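Broth microdilution following CLSI M27-A3/M38-A2 with minor modifications, in RPMI 1640 buffered to pH 7.0 with 0.165 M MOPS. Yeast inoculum came from an overnight YPD culture, set to OD600 0.12 (˜1×10^6 CFU/mL) and then diluted 1:100. Compounds were tested in two-fold dilutions at 0.06-31.3 μg/mL for 48 h at 35° C.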

For assay [2], the system named is A. fumigatus NRRL 6113 (S). It counts as cell-based, Aspergillus fumigatus. The following applies: for MIC: strain S = A. fumigatus NRRL 6113. On the procedure: (§1) 10 mg/mL stock solutions of compounds 1a-9j were prepared in dimethyl sulfoxide (DMSO) and were stored at −20° C. in the dark. The antifungal agent amphotericin B (AmB) was purchased from VWR (Radnor PA, USA). AmB was dissolved in DMSO at a final concentration of 5 mg/mL and was stored at −20° C., protected from light. Candida albicans American Type Culture Collection (ATCC) 10231 (strain A), C. albicans ATCC 64124 (B), and C. albicans ATCC MYA-2876 (C) were obtained from Utah State University. C. albicans ATCC 90819 (D), C. albicans ATCC MYA-2310 (E), C. albicans ATCC MYA-1237 (F), C. albicans ATCC MYA-1003 (G), Candida glabrata ATCC 2001 (H), Candida krusei ATCC 6258 (I), Candida parapsilosis ATCC 22019 (J), Cryptococcus neoformans ATCC MYA-895 (M), Aspergillus terreus ATCC MYA-3633 (N), and Aspergillus flavus ATCC MYA-3631 (0) were obtained from the American Type Culture Collection (ATCC; Manassas, VA, USA). Aspergillus nidulans ATCC 38163 (P) was obtained from University of Kentucky. Clinically derived Aspergillus fumigatus NRRL 163 (Q), A. fumigatus NRRL 5109 (R), and A. fumigatus NRRL 6113 (S) were obtained from Northern Regional Research Laboratory (NRRL). Candida auris 384 (K), C. auris 390 (L), and fungal strains 381-400 (including 10 C. auris (AR Bank #381-390), 3 Candida duobushaemulonii (AR Bank #391, AR Bank #392, and AR Bank #394), 2 Candida haemulonii (AR Bank #393 and AR Bank #395), 1 Kodameae ohmeri (AR Bank #396), 1 C. krusei (AR Bank #397), 1 Candida lusitaniae (AR Bank #398), and 2 Saccharomyces cerevisiae strains (AR Bank #399 and AR Bank #400)) were part of a larger fungal library from the AR Bank maintained by the Centers for Disease Control and Prevention (CDC; Atlanta, GA, USA). Filamentous fungi and yeasts were cultivated at 35° C. in RPMI 1640 medium (with L-glutamine, without sodium bicarbonate, Sigma-Aldrich, St. Louis, MO) buffered to a pH of 7.0 with 0.165 M morpholinepropanesulfonic acid (MOPS) buffer (Sigma-Aldrich). For cytotoxicity assays, HepG2 and the mouse macrophage cell line J774A.1 were obtained from University of Kentucky. The human embryonic kidney cell line, HEK-293, was bought from the ATCC. Mammalian cells were grown in Dulbecco's Modified Eagle's Medium (DMEM) (from VWR) with 10% fetal bovine serum (FBS) (from VWR) and 1% Pen/Strep (from ATCC). Cell lines were cultured at 37° C. with 5% CO2 and passaged by trypsinization with 0.05% trypsin: 0.53 mM EDTA (from Sigma-Aldrich).
(§2) The MIC values of compounds 1a-9j against yeast cells (strains A-P and 381-400) were determined in 96-well plates as described in the CLSI documents M27-A3 and M38-A2 with minor modifications.^2 A single colony of freshly prepared yeast cells was used to inoculate 5 mL of yeast extract peptone dextrose (YPD) broth prior to incubation overnight with shaking at 200 rpm at 35° C. From the actively growing yeast culture, 100 µL were then transferred to 900 μL of RPMI 1640 medium and re-adjusted to achieve OD600 of 0.12 (˜1×10^6 CFU/mL). The cell suspension was further diluted to achieve 1:100 in RPMI 1640 medium. 100 μL of cells were added to the wells of a 96-well microtiter plates that contained 100 µL of the compound solution to obtain concentrations of 0.06-31.3 μg/mL of compounds 1a-9j or AmB prior to incubation for 48 h at 35° C.
(§3) Finally, the activity of these monohydrazides was explored against […] non-Candida strains: Cryptococcus neoformans ATCC MYA-895 (M), Aspergillus terreus ATCC MYA-3633 (N), Aspergillus flavus ATCC MYA-3631 (O), Aspergillus nidulans ATCC 38163 (P), Aspergillus fumigatus NRRL 163 (Q), A. fumigatus NRRL 5109 (R), and A. fumigatus NRRL 6113 (S) (Tables 1A and 1B). The double dilution method was used with concentrations ranging from 0.06 to 31.3 j·tg mL^−1 for monohydrazides 1a-9j, and the commercially available positive antifungal control amphotericin B (AmB).

In assay [3] the test system is A. fumigatus NRRL 5109 (R). The format is cell-based, Aspergillus fumigatus. As to conditions: strain R = A. fumigatus NRRL 5109. On the procedure:
as §1, §2, §3

[4] abbreviates: Aspergillus fumigatus, NRRL163, read-out: MIC.
The mark [5] stands for this setting: Aspergillus fumigatus, NRRL6113, read-out: MIC.
Setting [6] is: Aspergillus fumigatus, NRRL5109, read-out: MIC.

The structures appear in SMILES notation. ≈ marks a conversion by molar mass, not a printed value. Read-outs that look alike come from different tables or passages of the source.

For `COc1cccc(NNC(=O)c2ccc(Br)cn2)c1` [Compound 4c], the MIC in assay [1] (setting [4]) is 15.6 µg/mL (≈ 48.4 µM); in assay [2] (setting [5]), greater than 31.3 µg/mL; in assay [3] (setting [6]) it was 7.8 µg/mL (≈ 24.2 µM).

`O=C(NNc1ccc(F)cc1)c1cccc(F)n1` [Compound 5d]: the results for the MIC in assay [1] (setting [4]), in assay [2] (setting [5]) and in assay [3] (setting [6]) were 31.3 µg/mL (≈ 126 µM), 15.6 µg/mL (≈ 62.6 µM) and 15.6 µg/mL (≈ 62.6 µM), respectively.

With `COc1ccc(NNC(=O)c2cccc(F)n2)cc1` [Compound 5f], the MIC in assay [1] (setting [4]) is greater than 31.3 µg/mL; in assay [2] (setting [5]), 15.6 µg/mL (≈ 59.7 µM); in assay [3] (setting [6]), greater than 31.3 µg/mL. The “MIC (highest activity against strain S)” value in assay [2] (against strain S) is given as 15.6 j·tg mL^−1.

On to `O=C(NNc1cccc(F)c1)c1ncc(F)cc1F` [Compound 7a], for which the MIC in assay [1], in assay [2] and in assay [3] was greater than 31.3 μg/mL^−1 throughout.

For `O=C(NNc1ccc(F)cc1)c1ncc(F)cc1F` [Compound 7d], the MIC in assay [1] (setting [4]), in assay [2] (setting [5]) and in assay [3] (setting [6]) was greater than 31.3 µg/mL each time.

`COc1ccc(NNC(=O)c2ncc(F)cc2F)cc1` [Compound 7f]: the MIC in assay [1] (setting [4]), in assay [2] (setting [5]) and in assay [3] (setting [6]) was 31.3 µg/mL (≈ 112 µM) each time.

As for `O=C(NNc1cccc(F)c1)c1nc(F)ccc1F` [Compound 8a], the MIC in assay [1], in assay [2] and in assay [3] was greater than 31.3 μg/mL^−1 throughout.

On to `O=C(NNc1ccc(F)cc1)c1nc(F)ccc1F` [Compound 8d], for which the results for the MIC in assay [1] (setting [4]), in assay [2] (setting [5]) and in assay [3] (setting [6]) were 31.3 µg/mL (≈ 117 µM), greater than 31.3 µg/mL and 15.6 µg/mL (≈ 58.4 µM), respectively.

As for `COc1ccc(NNC(=O)c2nc(F)ccc2F)cc1` [Compound 8f], the MIC turned out to be 31.3 µg/mL (≈ 112 µM) in assay [1] (setting [4]), 31.3 µg/mL (≈ 112 µM) in assay [2] (setting [5]) and 15.6 µg/mL (≈ 55.9 µM) in assay [3] (setting [6]).

On to `O=C(NNc1cccc(F)c1)c1cnccn1` [Compound 9a], for which the MIC in assay [1], in assay [2] and in assay [3] was greater than 31.3 μg/mL^−1 throughout.

As to `O=C(NNc1cccc(Cl)c1)c1cnccn1` [Compound 9b], the MIC in assay [1] (setting [4]), in assay [2] (setting [5]) and in assay [3] (setting [6]) was greater than 31.3 µg/mL throughout.

Turning to `COc1cccc(NNC(=O)c2cnccn2)c1` [Compound 9c], the MIC in assay [1] (setting [4]) is 15.6 µg/mL (≈ 63.9 µM); in assay [2] (setting [5]) it was greater than 31.3 µg/mL; in assay [3] (setting [6]), 7.8 µg/mL (≈ 31.9 µM).

Regarding `COc1ccc(NNC(=O)c2cnccn2)cc1` [Compound 9f], the MIC in assay [1] (setting [4]), in assay [2] (setting [5]) and in assay [3] (setting [6]) was 31.3 µg/mL (≈ 128 µM) each time.

Take `O=C(NNc1ccc(F)cc1F)c1cnccn1` [Compound 9g]: the MIC in assay [1] (setting [4]), in assay [2] (setting [5]) and in assay [3] (setting [6]) was greater than 31.3 µg/mL throughout.
